In US20150119410A1, “BIOMARKERS OF RESPONSE TO NAE INHIBITORS” (MILLENNIUM PHARMACEUTICALS, INC., priority 2011, published 2015):

Assays:
Experiment in all cases: Cell line panel 1 viability screen
Assay type in all cases: cell-based
8505C = 8505C (thyroid)
Experimental: (§1) To support clinical development and identify potential biomarkers of tumor sensitivity or resistance, two large cancer cell line panels (Panel 1, N=653 (McDermott et al. (2007) PNAS 104:19936-19941); Panel 2, N=240 (O'Day et al. (2010) Fourth AACR International Conference on Molecular Diagnostics in Cancer Therapeutic Development)) were treated with MLN4924 and cell viability data (IC50, EC50, and POC—Percentage of Control) were generated.
(§2) Panel 1 (McDermott et al., supra). The cell lines were exposed to three MLN4924 concentrations (20 nM, 200 nM, and 2 μM) for 72 hours. Viability, i.e., cell number, was quantified by measuring fluorescence of a cell-permeant nucleic acid stain. Mean of triplicate values for each sample were taken and compared to DMSO control to calculate percentage of control. In the results, control or no activity value is given a value of about 1, sensitivity is indicated by a value less than 1, with 0 as death of the entire cell population and resistance indicated by a value greater than 1. A continuum of viability values was obtained for each concentration, so some values were selected as cut-offs for final determination of sensitivity or resistance. For example, median POC values of less than the median value of all POC's recorded in the panel (<0.34) indicated sensitivity, values of 0.34 to 0.75 indicated borderline sensitivity, values greater than the 3rd quartile of all POC's in the panel (>0.75) insensitivity or resistance. […] Final judgment of cell line as sensitive, insensitive or resistant was determined by its viability at 2 μM.

ACHN = ACHN (kidney)
Experimental: as §1, §2

AN3CA = AN3CA (Uterus)
Experimental: as §1, §2

C-33a = C-33a (Cervix)
Experimental: as §1, §2

C2BBe1 = settings: Homo sapiens; C2BBe1 (intestine); 2 μM MLN4924, 72 hours; DMSO control about 1
Experimental: as §1, §2

CAL-27 = CAL-27 (upper aerodigestive tract)
Experimental: as §1, §2

CFPAC-1 = CFPAC-1 (pancreas)
Experimental: as §1, §2

COLO-205 = tested on: COLO-205
Experimental: as §1, §2

FADU = FADU (upper aerodigestive tract)
Experimental: as §1, §2

HuCCT1 = HuCCT1 (Liver)
Experimental: as §1, §2

KP-4 = KP-4 (pancreas)
Experimental: as §1, §2

KYSE-150 = KYSE-150 (oesophagus)
Experimental: as §1, §2

KYSE-450 = KYSE-450 (oesophagus)
Experimental: as §1, §2

MDA-MB-468 = MDA-MB-468 (breast)
Experimental: as §1, §2

NCI-H2405 = NCI-H2405 (lung)
Experimental: as §1, §2

NCl-H1581 = NCl-H1581 (lung NSCLC); 2 μM MLN4924, 72 hours; DMSO control about 1
Experimental: as §1, §2

NCl-H1703 = NCl-H1703 (lung NSCLC); 2 μM MLN4924, 72 hours; DMSO control about 1
Experimental: as §1, §2

NCl-H1975 = NCl-H1975 (lung); 2 μM MLN4924, 72 hours; DMSO control about 1
Experimental: as §1, §2

PANC-08-13 = PANC-08-13 (pancreas)
Experimental: as §1, §2

RCM-1 = tested on: RCM-1
Experimental: as §1, §2

SK-MEL-30 = settings: Homo sapiens; SK-MEL-30 (skin); 2 μM MLN4924, 72 hours; DMSO control about 1
Experimental: as §1, §2

SK-OV-3 = settings: Homo sapiens; SK-OV-3 (ovary); 2 μM MLN4924, 72 hours; DMSO control about 1
Experimental: as §1, §2

UMC-11 = UMC-11 (lung)
Experimental: as §1, §2

[1] = Homo sapiens, 2 μM MLN4924, 72 hours, DMSO control about 1

Structure (SMILES): NS(=O)(=O)OC[C@@H]1C[C@@H](n2ccc3c(N[C@H]4CCc5ccccc54)ncnc32)C[C@@H]1O [MLN4924, ((1S,2S,4R)-4-{4-[(1S)-2,3-dihydro-1H-inden-1-ylamino]-7H-pyrrolo[2,3-d]pyrimidin-7-yl}-2-hydroxycyclopentyl)methyl sulphamate]
- Phenotype (8505C; NF2 mutant): sensitive (median POC values of less than the median value of all POC's recorded in the panel (<0.34) indicated sensitivity)
- viability at 2 µM (8505C; [1]): 14.1%
- Phenotype (ACHN; NF2 mutant): sensitive (median POC values of less than the median value of all POC's recorded in the panel (<0.34) indicated sensitivity)
- viability at 2 µM (ACHN; [1]): 6.21%
- Phenotype (AN3CA; FBXW7 mutant): sensitive (median POC values of less than the median value of all POC's recorded in the panel (<0.34) indicated sensitivity)
- viability at 2 µM (AN3CA; Homo sapiens, AN3-CA, 2 μM MLN4924, 72 hours, DMSO control about 1): 19.4%
- Phenotype (C-33a; FBXW7 mutant): sensitive (median POC values of less than the median value of all POC's recorded in the panel (<0.34) indicated sensitivity)
- viability at 2 µM (C-33a; [1]): 8.22%
- viability at 2 µM (C2BBe1): 71.6%
- Phenotype (CAL-27; SMAD4 mutant): sensitive (median POC values of less than the median value of all POC's recorded in the panel (<0.34) indicated sensitivity)
- viability at 2 µM (CAL-27; [1]): 2.71%
- Phenotype (CFPAC-1; SMAD4 mutant): sensitive?
- viability at 2 µM (CFPAC-1; [1]): 28.2%
- Phenotype (COLO-205; COLO-205 (large_intestine), SMAD4 mutant): sensitive (median POC values of less than the median value of all POC's recorded in the panel (<0.34) indicated sensitivity)
- viability at 2 µM (COLO-205; Homo sapiens, COLO-205 (intestine), 2 μM MLN4924, 72 hours, DMSO control about 1): 14.4%
- Phenotype (FADU; SMAD4 mutant): sensitive (median POC values of less than the median value of all POC's recorded in the panel (<0.34) indicated sensitivity)
- viability at 2 µM (FADU; [1]): 7.3%
- viability at 2 µM (HuCCT1; Homo sapiens, HuCCT-1, 2 μM MLN4924, 72 hours, DMSO control about 1): 12.6%
- Phenotype (HuCCT1; FBXW7 mutant): sensitive (median POC values of less than the median value of all POC's recorded in the panel (<0.34) indicated sensitivity)
- viability at 2 µM (KP-4; [1]): 5.18%
- Phenotype (KP-4; SMAD4 mutant): sensitive (median POC values of less than the median value of all POC's recorded in the panel (<0.34) indicated sensitivity)
- viability at 2 µM (KYSE-150; [1]): 12.8%
- Phenotype (KYSE-150; SMAD4 mutant): sensitive (median POC values of less than the median value of all POC's recorded in the panel (<0.34) indicated sensitivity)
- viability at 2 µM (KYSE-450; [1]): 14.3%
- Phenotype (KYSE-450; KDM6A mutant): sensitive (median POC values of less than the median value of all POC's recorded in the panel (<0.34) indicated sensitivity)
- viability at 2 µM (MDA-MB-468; [1]): 29.6%
- Phenotype (MDA-MB-468; SMAD4 mutant): sensitive (median POC values of less than the median value of all POC's recorded in the panel (<0.34) indicated sensitivity)
- viability at 2 µM (NCI-H2405; [1]): 25.5%
- Phenotype (NCI-H2405; SMAD4 mutant): sensitive (median POC values of less than the median value of all POC's recorded in the panel (<0.34) indicated sensitivity)
- viability at 2 µM (NCl-H1581): 73.7%
- viability at 2 µM (NCl-H1703): 11%
- viability at 2 µM (NCl-H1975): 30.5%
- viability at 2 µM (PANC-08-13; [1]): 77.7%
- Phenotype (PANC-08-13; SMAD4 mutant): resistant (values greater than the 3rd quartile of all POC's in the panel (>0.75) insensitivity or resistance)
- viability at 2 µM (RCM-1; Homo sapiens, RCM-1 (intestine), 2 μM MLN4924, 72 hours, DMSO control about 1): 76.7%
- Phenotype (RCM-1; RCM-1 (Intestine), FBXW7 mutant): resistant (values greater than the 3rd quartile of all POC's in the panel (>0.75) insensitivity or resistance)
- viability at 2 µM (SK-MEL-30): 77.3%
- viability at 2 µM (SK-OV-3): 39.7%
- viability at 2 µM (UMC-11; [1]): 44.7%
- Phenotype (UMC-11; SMAD4 mutant): insensitive (values of 0.34 to 0.75 indicated borderline sensitivity)
